For assay [1], the system named is E. cloacae expressing the Class C P99. The experiment in a line: Broth microdilution MIC assay with ceftazidime, E. cloacae P99. Conditions: Fixed CAZ (ceftazidime) 4 μg/mL; E. cl. 144200 p99 AmpC. The format is cell-based. A digest of the protocol: (§1)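 Test compounds in 2-fold dilutions (16 to 0.125 μg/mL final) in CAMHB were combined with a β-lactam at a static 4 μg/ml final. Plates were inoculated per CLSI broth microdilution with the β-lactamase-producing strain (pre-grown 3-5 h) and incubated 16-20 h at 37° C. MIC of test compound was read visually.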

The target in the next assay is T1, AmpC (Enterobacter cloacae, UniProt P05364).
T1 construct: made in house; host or cells: E. coli BL21(DE3)
T1 sequence (P05364 21-381): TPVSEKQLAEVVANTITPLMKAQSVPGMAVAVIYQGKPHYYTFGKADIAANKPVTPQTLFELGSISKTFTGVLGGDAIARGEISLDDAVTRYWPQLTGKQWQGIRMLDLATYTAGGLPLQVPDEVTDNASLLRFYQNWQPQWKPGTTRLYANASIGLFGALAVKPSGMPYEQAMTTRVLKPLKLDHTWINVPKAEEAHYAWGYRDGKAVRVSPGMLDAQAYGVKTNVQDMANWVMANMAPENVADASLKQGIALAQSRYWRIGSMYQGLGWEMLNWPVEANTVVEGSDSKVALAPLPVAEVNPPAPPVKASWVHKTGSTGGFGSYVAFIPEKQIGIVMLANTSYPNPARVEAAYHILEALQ
The experiment in a line: β-lactamase enzyme inhibition assay, p99 AmpC (nitrocefin substrate). The format is biochemical. A digest of the protocol:
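Native untagged β-lactamases were expressed in E. coli BL21(DE3), then purified by cation exchange and gel filtration. Enzyme was preincubated with inhibitor for 15 min at 37 °C before substrate was added. IC50 was taken from initial hydrolysis rates relative to no-inhibitor controls.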

A further assay deals with T2, KPC-2 (Klebsiella pneumoniae, UniProt Q9F663).
T2 construct: made in house; host or cells: E. coli BL21(DE3)
T2 sequence (Q9F663 25-293, looked up): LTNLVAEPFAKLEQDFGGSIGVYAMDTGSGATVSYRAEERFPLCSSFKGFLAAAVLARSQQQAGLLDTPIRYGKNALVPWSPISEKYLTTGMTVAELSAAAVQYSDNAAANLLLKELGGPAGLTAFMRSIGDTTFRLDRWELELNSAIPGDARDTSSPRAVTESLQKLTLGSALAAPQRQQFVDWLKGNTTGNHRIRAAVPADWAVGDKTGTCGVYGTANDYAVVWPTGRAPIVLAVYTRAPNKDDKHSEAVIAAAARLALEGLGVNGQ
The experiment in a line: β-lactamase enzyme inhibition assay, KPC-2 (imipenem substrate). Format: biochemical. Conditions: Class A; imipenem substrate, 300 nm; read-out: KPC-2. In outline: (§2)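 Native untagged β-lactamases were expressed in E. coli BL21(DE3), then purified by cation exchange and gel filtration. Enzyme was preincubated with inhibitor for 15 min at 37 °C before substrate was added. Imipenem (A300) served KPC-2 and cefotaxime (A260) served SHV-5. IC50 was taken from initial hydrolysis rates relative to no-inhibitor controls.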

For assay [2], the system named is P. aeruginosa expressing the Class B carbapenemase VIM-2. The assay is described as follows: Broth microdilution MIC assay with meropenem, P. aeruginosa VIM-2. Conditions: Fixed Mero (meropenem) 4 μg/mL; P. aerug. 2775 VIM-2. The format is cell-based. A digest of the protocol:
as §1
On the technique in general: In broth dilution the organism is exposed to a series of concentrations in liquid medium.

Assay [3] concerns K. pneumoniae producing the Class D carbapenemase OXA-48. The experiment in a line: Broth microdilution MIC assay with meropenem, K. pneumoniae OXA-48. Conditions: Fixed Mero (meropenem) 4 μg/mL; K. p. 11978 OXA-48. The format is cell-based. In outline: as §1
Assay [4] deals with K. pneumoniae expressing the Class A carbapenemase KPC-2. The assay is described as follows: Broth microdilution MIC assay with meropenem, K. pneumoniae KPC-2. The format is cell-based. The conditions noted are these: Fixed Mero (meropenem) 4 μg/mL; K. p. 156319 KPC-3. A digest of the protocol:
as §1

For another assay, the target named is OXA-48 (UniProt Q6XEC0). The assay is described as follows: β-lactamase enzyme inhibition assay, Class D oxacillinase. Format: biochemical. The conditions noted are these: read-out: OXA-48.
Another assay has as its target T3, SHV-5 (Klebsiella pneumoniae, UniProt P0A3M1).
T3 construct: made in house; host or cells: E. coli BL21(DE3)
The experiment in a line: β-lactamase enzyme inhibition assay, SHV-5 (cefotaxime substrate). The format is biochemical. A digest of the protocol: as §2

The test system of assay [5] is K. pneumoniae expressing the class A carbapenemase KPC-2 and the class B carbapenemase VIM-4. The experiment in a line: Broth microdilution MIC assay with meropenem, K. pneumoniae KPC-2 and VIM-4. Format: cell-based. Conditions: Fixed Mero (meropenem) 4 μg/mL; K. p. A-1797 KPC-2 VIM-4. A digest of the protocol: as §1
A further assay has as its target T4, VIM-2 (Escherichia coli, UniProt Q5U7L7).
T4 construct: made in house; host or cells: E. coli BL21(DE3)
The assay is described as follows: β-lactamase enzyme inhibition assay, VIM-2 (nitrocefin substrate). The format is biochemical. Conditions: Class B; nitrocefin substrate, 486 nm; read-out: VIM-2. In outline: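 Purified VIM-2 preincubated with inhibitor for 15 min at 37° C, then nitrocefin (100 μM final) added and absorbance at 486 nm followed for 10 min. Maximum hydrolysis rates compared with inhibitor-free controls; IC50 fitted from percent inhibition across inhibitor concentrations.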

Assay [6] has as its system E. coli expressing the Class A Extended Spectrum Beta-Lactamase (ESBL) CTX-M-15. The assay is described as follows: Broth microdilution MIC assay with ceftazidime, E. coli CTX-M-15. The format is cell-based. Conditions: Fixed CAZ (ceftazidime) 4 μg/mL; E. coli ESBL4 CTX-M-15. In outline:
as §1

T3 sequence (P0A3M1 22-286): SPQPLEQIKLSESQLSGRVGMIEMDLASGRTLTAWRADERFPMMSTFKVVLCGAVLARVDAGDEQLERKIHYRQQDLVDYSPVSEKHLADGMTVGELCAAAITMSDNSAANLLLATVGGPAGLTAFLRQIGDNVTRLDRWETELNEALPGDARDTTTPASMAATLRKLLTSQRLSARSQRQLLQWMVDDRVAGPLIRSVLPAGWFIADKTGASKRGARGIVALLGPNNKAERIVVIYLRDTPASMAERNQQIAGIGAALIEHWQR

Turning to `O=C(Cn1cc(CNCCO)nn1)N[C@H]1Cc2cccc(C(=O)O)c2OB1O` [Example 21, (R)-2-hydroxy-3-(2-(4-(((2-hydroxyethyl)amino)methyl)-1H-1,2,3-triazol-1-yl)acetamido)-3,4-dihydro-2H-benzo[e][1,2]oxaborinine-8-carboxylic acid], the “MIC (μg/mL) of Exemplary Compounds in presence of fixed β-lactams: E. cl. 144200 p99 AmpC” value (shortened to “MIC (μg/mL) … E. cl. 144200 p99 AmpC”) in [1] was “C (C represents an MIC of <1 μg/mL)”. Moreover, the IC50 is below 100 nM at AmpC; below 100 nM on KPC-2; 100 to 1000 nM at OXA-48; below 100 nM on SHV-5; below 100 nM at VIM-2. In addition, in [2], the “MIC (μg/mL) of Exemplary Compounds in presence of fixed β-lactams: P. aerug. 2775 VIM-2” value (from here on “MIC (μg/mL) … P. aerug. 2775 VIM-2”) is “B (B represents an MIC between 1 and 16 μg/mL inclusive)”. Moreover, the “MIC (μg/mL) of Exemplary Compounds in presence of fixed β-lactams: K. p. 11978 OXA-48” value (shortened to “MIC (μg/mL) … K. p. 11978 OXA-48”) in [3] was “B (B represents an MIC between 1 and 16 μg/mL inclusive)”. Besides, the “MIC (μg/mL) of Exemplary Compounds in presence of fixed β-lactams: K. p. 156319 KPC-3” value (from here on “MIC (μg/mL) … K. p. 156319 KPC-3”) in assay [4] is “B (B represents an MIC between 1 and 16 μg/mL inclusive)”. The “MIC (μg/mL) of Exemplary Compounds in presence of fixed β-lactams: K. p. A-1797 KPC-2 VIM-4” value (“MIC (μg/mL) … K. p. A-1797 KPC-2 VIM-4” for short) in assay [5] was “B (B represents an MIC between 1 and 16 μg/mL inclusive)”. In assay [6], the “MIC (μg/mL) of Exemplary Compounds in presence of fixed β-lactams: E. coli ESBL4 CTX-M-15” value (shortened to “MIC (μg/mL) … E. coli ESBL4 CTX-M-15”) is “C (C represents an MIC of <1 μg/mL)”.
As to `NCCn1nnnc1CC(=O)N[C@H]1Cc2cccc(C(=O)O)c2OB1O` [Example 41, (R)-3-(2-(1-(2-aminoethyl)-1H-tetrazol-5-yl)acetamido)-2-hydroxy-3,4-dihydro-2H-benzo[e][1,2]oxaborinine-8-carboxylic acid], the “MIC (μg/mL) … E. cl. 144200 p99 AmpC” value in assay [1] is recorded as “C (C represents an MIC of <1 μg/mL)”. Moreover, the IC50 against AmpC is below 100 nM; at KPC-2 it was below 100 nM; on OXA-48 it was 100 to 1000 nM; against SHV-5, below 100 nM; at VIM-2, below 100 nM. The “MIC (μg/mL) … P. aerug. 2775 VIM-2” value in [2] is given as “C (C represents an MIC of <1 μg/mL)”. Also, in assay [3], the “MIC (μg/mL) … K. p. 11978 OXA-48” value is “B (B represents an MIC between 1 and 16 μg/mL inclusive)”. The “MIC (μg/mL) … K. p. 156319 KPC-3” value in [4] is on record as “C (C represents an MIC of <1 μg/mL)”. Moreover, the “MIC (μg/mL) … K. p. A-1797 KPC-2 VIM-4” value in [5] is given as “C (C represents an MIC of <1 μg/mL)”. Moreover, the “MIC (μg/mL) … E. coli ESBL4 CTX-M-15” value in assay [6] was “C (C represents an MIC of <1 μg/mL)”.
On to `O=C(Cn1nnc(CO)c1CO)N[C@H]1Cc2cccc(C(=O)O)c2OB1O` [Example 8, (R)-3-(2-(4,5-bis(hydroxymethyl)-1H-1,2,3-triazol-1-yl)acetamido)-2-hydroxy-3,4-dihydro-2H-benzo[e][1,2]oxaborinine-8-carboxylic acid], for which, in assay [1], the “MIC (μg/mL) … E. cl. 144200 p99 AmpC” value is “C (C represents an MIC of <1 μg/mL)”. Further, the IC50 against AmpC was 1000 to 10000 nM; on KPC-2, 100 to 1000 nM; on OXA-48, 100 to 1000 nM; against SHV-5, below 100 nM; at VIM-2, 1000 to 10000 nM. Also, in [2], the “MIC (μg/mL) … P. aerug. 2775 VIM-2” value was “B (B represents an MIC between 1 and 16 μg/mL inclusive)”. In [3], the “MIC (μg/mL) … K. p. 11978 OXA-48” value is “B (B represents an MIC between 1 and 16 μg/mL inclusive)”. Besides, the “MIC (μg/mL) … K. p. 156319 KPC-3” value in assay [4] is “B (B represents an MIC between 1 and 16 μg/mL inclusive)”. Further, the “MIC (μg/mL) … K. p. A-1797 KPC-2 VIM-4” value in [5] is “B (B represents an MIC between 1 and 16 μg/mL inclusive)”. For the same compound, in assay [6], the “MIC (μg/mL) … E. coli ESBL4 CTX-M-15” value is on record as “C (C represents an MIC of <1 μg/mL)”.
As to `CNCc1c(CO)nnn1CC(=O)N[C@H]1Cc2cccc(C(=O)O)c2OB1O` [Example 15, (R)-2-hydroxy-3-(2-(4-(hydroxymethyl)-5-((methylamino)methyl)-1H-1,2,3-triazol-1-yl)acetamido)-3,4-dihydro-2H-benzo[e][1,2]oxaborinine-8-carboxylic acid], the “MIC (μg/mL) … E. cl. 144200 p99 AmpC” value in assay [1] is recorded as “C (C represents an MIC of <1 μg/mL)”. In addition, the IC50 against AmpC was below 100 nM; at KPC-2, 100 to 1000 nM; on OXA-48, 100 to 1000 nM; at SHV-5 it was 100 to 1000 nM; on VIM-2, below 100 nM. Further, the “MIC (μg/mL) … P. aerug. 2775 VIM-2” value in [2] is recorded as “C (C represents an MIC of <1 μg/mL)”. Moreover, the “MIC (μg/mL) … K. p. 11978 OXA-48” value in assay [3] was “B (B represents an MIC between 1 and 16 μg/mL inclusive)”. In addition, the “MIC (μg/mL) … K. p. 156319 KPC-3” value in assay [4] is “B (B represents an MIC between 1 and 16 μg/mL inclusive)”. Besides, the “MIC (μg/mL) … K. p. A-1797 KPC-2 VIM-4” value in [5] was “B (B represents an MIC between 1 and 16 μg/mL inclusive)”. Also, the “MIC (μg/mL) … E. coli ESBL4 CTX-M-15” value in assay [6] is on record as “C (C represents an MIC of <1 μg/mL)”.
Take `CN(C)Cc1nnn(CC(=O)N[C@H]2Cc3cccc(C(=O)O)c3OB2O)c1CN(C)C` [Example 38, (R)-3-(2-(4,5-bis((dimethylamino)methyl)-1H-1,2,3-triazol-1-yl)acetamido)-2-hydroxy-3,4-dihydro-2H-benzo[e][1,2]oxaborinine-8-carboxylic acid]: the “MIC (μg/mL) … E. cl. 144200 p99 AmpC” value in [1] is “C (C represents an MIC of <1 μg/mL)”. Moreover, the IC50 was below 100 nM on AmpC; below 100 nM at KPC-2; 100 to 1000 nM at OXA-48; 100 to 1000 nM against SHV-5; 100 to 1000 nM on VIM-2. For the same compound, the “MIC (μg/mL) … P. aerug. 2775 VIM-2” value in assay [2] was “B (B represents an MIC between 1 and 16 μg/mL inclusive)”. The “MIC (μg/mL) … K. p. 11978 OXA-48” value in assay [3] is “B (B represents an MIC between 1 and 16 μg/mL inclusive)”. Further, the “MIC (μg/mL) … K. p. 156319 KPC-3” value in [4] was “B (B represents an MIC between 1 and 16 μg/mL inclusive)”. Further, the “MIC (μg/mL) … K. p. A-1797 KPC-2 VIM-4” value in assay [5] was “B (B represents an MIC between 1 and 16 μg/mL inclusive)”. Moreover, in assay [6], the “MIC (μg/mL) … E. coli ESBL4 CTX-M-15” value was “B (B represents an MIC between 1 and 16 μg/mL inclusive)”.
For `N=C(N)NCC(O)Cc1cn(CC(=O)N[C@H]2Cc3cccc(C(=O)O)c3OB2O)nn1` (stereo partly drawn) [Example 93, (3R)-3-(2-(4-(3-guanidino-2-hydroxypropyl)-1H-1,2,3-triazol-1-yl)acetamido)-2-hydroxy-3,4-dihydro-2H-benzo[e][1,2]oxaborinine-8-carboxylic acid], in assay [1], the “MIC (μg/mL) … E. cl. 144200 p99 AmpC” value was “C (C represents an MIC of <1 μg/mL)”. The IC50 was below 100 nM on AmpC; below 100 nM on KPC-2; 1000 to 10000 nM on OXA-48; below 100 nM against SHV-5; 100 to 1000 nM at VIM-2. The “MIC (μg/mL) … P. aerug. 2775 VIM-2” value in assay [2] was “C (C represents an MIC of <1 μg/mL)”. For the same compound, the “MIC (μg/mL) … K. p. 11978 OXA-48” value in [3] is “B (B represents an MIC between 1 and 16 μg/mL inclusive)”. The “MIC (μg/mL) … K. p. 156319 KPC-3” value in assay [4] is “B (B represents an MIC between 1 and 16 μg/mL inclusive)”. In addition, in [5], the “MIC (μg/mL) … K. p. A-1797 KPC-2 VIM-4” value is “B (B represents an MIC between 1 and 16 μg/mL inclusive)”. In addition, in [6], the “MIC (μg/mL) … E. coli ESBL4 CTX-M-15” value is recorded as “C (C represents an MIC of <1 μg/mL)”.
